From ChEMBL document CHEMBL1201862, “PubChem BioAssay data set” (2004)
Active and inactive are the calls of the source.

How the values were obtained:
Paired box protein Pax-8 = Paired box protein Pax-8 (Homo sapiens, UniProt Q06710); test: PAX8 transcriptional activity inhibition in RMG-I – RMG-I cells, luciferase, cherry-pick, dose response (AID 687027); format: functional, cell-based;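 note: luciferase reporter driven by Pax8 target thyroperoxidase promoter measured by SteadyGlo luminescence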
[1] = OVCAR-3 cell viability loss – plate reader, dry powder samples, PAX8 inhibitor project, dose response (AID 743044); format: functional, cell-based
[2] = OVCAR8 cell viability loss – plate reader, dry powder samples, PAX8 project, dose response (AID 743197); format: functional, cell-based; conditions: OVCAR-8
[3] = target: T1, Corticotropin-releasing factor receptor 2/Corticotropin-releasing factor-binding protein (Homo sapiens, UniProt P24387+Q13324); test: Dose Response confirmation of uHTS hits for small molecule antagonists of the CRF-binding protein and CRF-R2 receptor complex.; format: functional; conditions: read-out: IC50_Mean
T1 sequence (Q13324 whole entry): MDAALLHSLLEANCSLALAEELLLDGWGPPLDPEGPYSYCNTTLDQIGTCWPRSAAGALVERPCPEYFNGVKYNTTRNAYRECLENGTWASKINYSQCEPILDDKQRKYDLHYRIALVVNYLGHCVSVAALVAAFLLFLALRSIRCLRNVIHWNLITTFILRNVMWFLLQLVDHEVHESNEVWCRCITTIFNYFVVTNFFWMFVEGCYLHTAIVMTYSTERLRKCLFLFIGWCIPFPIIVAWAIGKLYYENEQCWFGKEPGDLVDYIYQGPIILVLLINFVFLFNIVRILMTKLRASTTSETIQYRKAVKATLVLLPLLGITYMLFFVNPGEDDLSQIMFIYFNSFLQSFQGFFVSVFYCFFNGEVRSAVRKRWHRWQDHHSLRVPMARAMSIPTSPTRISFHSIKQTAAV
T1 sequence (P24387 whole entry): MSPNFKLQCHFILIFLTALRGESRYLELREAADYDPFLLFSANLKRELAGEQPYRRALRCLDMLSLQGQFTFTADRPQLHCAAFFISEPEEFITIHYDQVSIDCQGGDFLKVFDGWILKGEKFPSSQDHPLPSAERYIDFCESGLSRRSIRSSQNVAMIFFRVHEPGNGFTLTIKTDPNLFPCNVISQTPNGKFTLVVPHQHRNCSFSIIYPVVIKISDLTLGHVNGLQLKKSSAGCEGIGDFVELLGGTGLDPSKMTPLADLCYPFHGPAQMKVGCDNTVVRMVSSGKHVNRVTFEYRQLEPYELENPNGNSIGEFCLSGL

[4] = target: T1, Corticotropin-releasing factor receptor 2/Corticotropin-releasing factor-binding protein; test: activators of CRF receptor 2 with binding protein – uHTS hits, confirmation (AID 602473); format: functional; conditions: read-out: EC50_Mean
[5] = blockers of CRF-binding protein–CRF-R2 complex – cell-based, uHTS hits, 384-well, dose response (AID 651639); format: functional, Homo sapiens; conditions: read-out: IC50_Mean
Protein Tat = target: T2, Protein Tat (Human immunodeficiency virus type 1 group M subtype B (isolate HXB2)(HIV-1), UniProt P04608); format: functional;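 note: tat binding to TAR RNA read out by fluorescence polarization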
T2 sequence (P04608 whole entry): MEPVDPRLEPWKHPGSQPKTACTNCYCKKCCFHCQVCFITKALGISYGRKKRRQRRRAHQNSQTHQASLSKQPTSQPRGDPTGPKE

[6] = HIV-1 Vif–A3G interaction blockers – biochemical, TR-FRET, GST-Vif 1-94, biotin-A3G peptide, dose response retest, primary screen (AID 1117319); format: functional;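 note: TR-FRET signal of purified GST-Vif binding a biotinylated A3G peptide; inhibitors lower the FRET signal by blocking Vif and A3G binding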
[7] = reduction of Shn3 3'UTR-driven luciferase in osteoblasts – cell-based, Clone20 osteoblasts, firefly luciferase, cherry-picked, dose response (AID 624132); format: functional;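 note: firefly luciferase luminescence from reporter carrying the Shn3 3'UTR in osteoblasts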
[8] = loss of viability in HepG2 cells – cell-based, CellTiter-Glo, cherry-picked, cytotoxicity control for Shn3 inhibitor project, dose response (AID 624134); format: functional
[9] = non-specific 3'UTR reporter inhibition in Clone20-Shn3RL – cell-based, Renilla luciferase, cherry-picked, counter-screen for Shn3 inhibitor project, dose response (AID 624133); format: functional
[10] = target: T3, Hepatocyte nuclear factor 4-alpha (Homo sapiens, UniProt P41235); format: functional, cell-based;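 note: biochemical luminescence-based dose-response counterscreen measuring inhibition of HNF4 dimerization, run alongside a screen for blockers of ABHD5–perilipin-5 interaction; split luciferase complementation of HNF4 fusion proteins in cell lysate measuring dimerization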
T3 sequence (P41235 whole entry): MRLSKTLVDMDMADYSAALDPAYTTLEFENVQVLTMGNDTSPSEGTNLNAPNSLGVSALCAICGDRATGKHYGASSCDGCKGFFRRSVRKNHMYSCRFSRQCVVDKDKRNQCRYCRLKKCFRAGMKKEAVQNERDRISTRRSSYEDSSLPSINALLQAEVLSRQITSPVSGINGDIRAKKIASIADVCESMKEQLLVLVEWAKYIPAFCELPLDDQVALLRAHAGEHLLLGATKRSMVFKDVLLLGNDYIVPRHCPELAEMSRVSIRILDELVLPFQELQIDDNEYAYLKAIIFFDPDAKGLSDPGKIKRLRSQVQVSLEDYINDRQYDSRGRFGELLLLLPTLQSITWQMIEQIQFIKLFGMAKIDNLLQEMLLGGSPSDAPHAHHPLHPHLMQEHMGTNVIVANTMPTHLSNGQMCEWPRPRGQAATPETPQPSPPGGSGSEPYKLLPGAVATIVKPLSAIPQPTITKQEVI

[11] = reduced cellular PGC1a acetyl-lysine signal – cell-based, cherry-picked samples, dose response (AID 720514); format: functional;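 note: potency may reflect raised or lowered acetylation signal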
Beta-galactosidase = Beta-galactosidase (Escherichia coli, UniProt Q8VNN2); test: Dose response counterscreen for EBI2 assay utilizing the enzyme, b-galactosidase.; format: functional
[12] = target: T4, Mannose-6-phosphate isomerase (Homo sapiens, UniProt P34949); test: MPI inhibition at elevated mannose 6-phosphate – biochemical, fluorescence intensity, high mannose 6-phosphate, primary screen (AID 1220)
T4 sequence (P34949 whole entry): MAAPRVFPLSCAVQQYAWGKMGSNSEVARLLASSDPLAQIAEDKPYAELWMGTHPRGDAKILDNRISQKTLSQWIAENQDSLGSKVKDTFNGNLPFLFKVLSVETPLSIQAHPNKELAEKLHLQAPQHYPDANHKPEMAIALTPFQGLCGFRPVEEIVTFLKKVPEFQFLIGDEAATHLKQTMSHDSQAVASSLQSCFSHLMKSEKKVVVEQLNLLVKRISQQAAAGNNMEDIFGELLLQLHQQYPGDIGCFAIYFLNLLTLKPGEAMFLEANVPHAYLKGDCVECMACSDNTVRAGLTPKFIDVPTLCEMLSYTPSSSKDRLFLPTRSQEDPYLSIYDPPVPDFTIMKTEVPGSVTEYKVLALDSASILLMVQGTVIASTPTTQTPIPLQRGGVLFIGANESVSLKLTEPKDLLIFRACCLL

[13] = target: Eukaryotic translation initiation factor 4E (Mus musculus, UniProt P63073); test: blockers of eIF4G binding by eIF4E – biochemical, TR-FRET, dose response (AID 855); format: functional;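 note: potency for disrupting eIF4E binding to eIF4GI seen as loss of FRET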
[14] = target: T5, Endoribonuclease toxin MazF (Escherichia coli K-12, UniProt P0AE70); test: activation of MazEF endoribonuclease cleavage – biochemical, fluorescence, single-stranded RNA substrate, uHTS hits, dose response (AID 588481); format: functional
T5 sequence (P0AE70 whole entry): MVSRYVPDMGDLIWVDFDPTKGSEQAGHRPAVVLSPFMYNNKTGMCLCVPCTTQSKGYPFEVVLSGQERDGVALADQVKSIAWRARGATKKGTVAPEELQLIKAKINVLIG

[15] = target: T5, Endoribonuclease toxin MazF; test: substrate-only fluorescence increase artefacts – biochemical, single-stranded RNase substrate, counter-screen for MazEF activator project, dose response (AID 588502); format: functional
Kallikrein-7 = Kallikrein-7 (Homo sapiens, UniProt P49862); test: Fluorescence Intensity-based biochemical primary high throughput dose response assay to identify activators of kallikrein-7 (K7) zymogen.
[16] = HPDE-C7 pancreatic duct cell viability loss – fluorescence, HTS (AID 430); format: functional, cell-based; conditions: Homo sapiens
Large T antigen = Large T antigen (Simian virus 40, UniProt P03070); format: functional, Betapolyomavirus macacae;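 note: Confirmatory-stage PubChem screen for compounds that inhibit SV40 T antigen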
[17] = viability loss of HPDE-C7K cells – cell-based, fluorescence, HTS, primary screen (AID 431); format: functional; conditions: Homo sapiens
[18] = target: FAD-linked sulfhydryl oxidase ALR (Homo sapiens, UniProt P55789); test: ALR-catalysed DTT oxidation blockers – biochemical, H2O2 detection, luminescence, cherry-pick, dose response (AID 493248)
[19] = blockers of HIV-1 envelope-mediated cell-cell fusion – cherry-pick, dose response (AID 652057); format: functional, cell-based
[20] = viability loss in CEM21 cells – cell-based, CellTiter-Glo luminescence, cherry-picked, cytotoxicity control for viral fusion inhibitor project, dose response (AID 652042); format: functional;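 note: potency for signal decrease meaning cytotoxicity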
[21] = blockers of HIV-1 ZM109 envelope-driven cell-cell fusion – HeLa effector, CEM target cells, luciferase, cherry-pick, dose response (AID 652058); format: functional, cell-based;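 note: luciferase signal from HIV-1 Env mediated cell-cell fusion of effector and target cells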
[22] = off-target signal loss in HeLa-CEM21 co-culture – HeLa F-luc CTL cells, cherry-picked, counter-screen for HIV-1 Env fusion inhibitor project, dose response (AID 652040); format: functional, cell-based;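 note: potency for signal decrease marking cytotoxic or nonspecific inhibition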
[23] = HIV-1 AD8 envelope cell-cell fusion blockers – cherry-pick, dose response (AID 652062); format: functional, cell-based;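 note: luciferase signal from cell-cell fusion driven by HIV-1 clade B AD8 Env; potency is for inhibitors of fusion seen as a drop in luminescence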
[24] = Luminescence Cell-Based Dose Response HTS to Identify Inhibitors of 5'UTR Stem-Loop Driven Prion Protein mRNA Translation in H4 Neuroglioblastoma Cells. [Related pubchem assays: 1827 (Project Summary), 1813 (Primary HTS)]; format: functional
[25] = microbe, parasite or virus in culture; format: functional; conditions: Mycobacterium tuberculosis
[26] = viability of PTEN-deleted HCT116 cells – cell-based, HCT116 PTEN knockout, dose response (AID 1047); format: functional;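 note: HCT116 colon tumor cells with PTEN knocked out; cells exposed to compound for 60 hours before readout; potency for loss of cell viability measured by luminescence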
[27] = viability of HCT116 lacking mutant beta-catenin – cell-based, human colon tumor, dose response (AID 1045); format: functional;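 note: HCT116 colon tumor cells with beta catenin knocked out; cells exposed to compound for 60 hours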
[28] = Luminescence Cell-Based Dose Retest to Confirm Inhibitors of Cancer Stem Cells. [Related pubchem assays (depositor defined):AID2717, AID2721]; format: functional; conditions: Homo sapiens

Kallikrein-7, sequence (P49862 whole entry): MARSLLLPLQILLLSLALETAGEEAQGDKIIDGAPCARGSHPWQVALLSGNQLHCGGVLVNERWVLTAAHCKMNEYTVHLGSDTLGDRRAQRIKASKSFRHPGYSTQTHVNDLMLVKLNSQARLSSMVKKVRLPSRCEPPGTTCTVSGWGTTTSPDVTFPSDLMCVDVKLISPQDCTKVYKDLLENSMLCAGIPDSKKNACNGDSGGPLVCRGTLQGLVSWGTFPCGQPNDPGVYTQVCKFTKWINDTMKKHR
Beta-galactosidase, sequence (Q8VNN2 whole entry): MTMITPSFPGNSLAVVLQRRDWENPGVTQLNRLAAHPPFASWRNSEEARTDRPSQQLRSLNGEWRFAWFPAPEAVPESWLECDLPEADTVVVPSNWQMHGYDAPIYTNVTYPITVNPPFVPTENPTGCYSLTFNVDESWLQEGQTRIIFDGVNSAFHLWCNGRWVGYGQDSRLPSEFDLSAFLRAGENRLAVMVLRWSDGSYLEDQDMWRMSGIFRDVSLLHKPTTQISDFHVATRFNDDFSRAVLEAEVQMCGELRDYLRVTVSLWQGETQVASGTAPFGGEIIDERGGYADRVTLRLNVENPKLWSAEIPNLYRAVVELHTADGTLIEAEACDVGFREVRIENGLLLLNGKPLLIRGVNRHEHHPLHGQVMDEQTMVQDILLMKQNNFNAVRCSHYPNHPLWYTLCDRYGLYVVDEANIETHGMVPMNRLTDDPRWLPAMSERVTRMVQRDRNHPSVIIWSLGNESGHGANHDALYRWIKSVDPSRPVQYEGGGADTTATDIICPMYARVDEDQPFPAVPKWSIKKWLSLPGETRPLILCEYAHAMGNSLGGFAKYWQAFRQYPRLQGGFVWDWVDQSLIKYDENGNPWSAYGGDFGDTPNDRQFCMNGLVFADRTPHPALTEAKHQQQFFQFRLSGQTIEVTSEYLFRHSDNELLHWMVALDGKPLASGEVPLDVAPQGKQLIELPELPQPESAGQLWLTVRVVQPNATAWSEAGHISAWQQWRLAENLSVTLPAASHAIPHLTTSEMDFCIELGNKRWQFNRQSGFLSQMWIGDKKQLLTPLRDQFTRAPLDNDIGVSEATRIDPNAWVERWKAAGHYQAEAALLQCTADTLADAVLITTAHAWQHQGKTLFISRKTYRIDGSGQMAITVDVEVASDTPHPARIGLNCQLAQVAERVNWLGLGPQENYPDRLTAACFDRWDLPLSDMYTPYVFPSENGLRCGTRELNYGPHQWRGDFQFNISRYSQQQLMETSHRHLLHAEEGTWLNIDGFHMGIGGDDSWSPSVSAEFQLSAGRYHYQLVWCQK
Eukaryotic translation initiation factor 4E, sequence (P63073 whole entry): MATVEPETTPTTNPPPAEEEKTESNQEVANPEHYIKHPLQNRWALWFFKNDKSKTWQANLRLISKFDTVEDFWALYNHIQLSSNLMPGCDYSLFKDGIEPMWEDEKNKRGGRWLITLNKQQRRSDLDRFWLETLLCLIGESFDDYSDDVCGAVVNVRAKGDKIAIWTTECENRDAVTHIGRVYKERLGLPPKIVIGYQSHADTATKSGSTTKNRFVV
Paired box protein Pax-8, sequence (Q06710 whole entry): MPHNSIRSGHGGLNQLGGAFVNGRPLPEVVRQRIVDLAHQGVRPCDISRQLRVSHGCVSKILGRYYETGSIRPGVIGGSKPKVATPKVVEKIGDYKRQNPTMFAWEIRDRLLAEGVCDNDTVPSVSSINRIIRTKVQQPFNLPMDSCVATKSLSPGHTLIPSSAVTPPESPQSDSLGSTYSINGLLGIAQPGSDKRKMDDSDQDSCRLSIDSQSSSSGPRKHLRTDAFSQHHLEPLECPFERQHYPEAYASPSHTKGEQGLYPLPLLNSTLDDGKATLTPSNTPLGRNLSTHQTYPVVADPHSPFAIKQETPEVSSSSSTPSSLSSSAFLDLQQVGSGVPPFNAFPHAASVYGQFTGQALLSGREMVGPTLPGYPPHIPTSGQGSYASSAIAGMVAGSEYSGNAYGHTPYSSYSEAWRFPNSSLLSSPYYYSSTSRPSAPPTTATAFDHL
FAD-linked sulfhydryl oxidase ALR, sequence (P55789 whole entry, the tested form may be a part): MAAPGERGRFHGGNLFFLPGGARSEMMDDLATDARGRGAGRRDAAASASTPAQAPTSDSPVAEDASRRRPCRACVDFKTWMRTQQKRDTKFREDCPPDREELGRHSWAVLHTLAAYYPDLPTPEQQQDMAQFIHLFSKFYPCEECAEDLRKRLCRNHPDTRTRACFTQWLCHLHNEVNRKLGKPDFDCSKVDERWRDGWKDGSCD
Large T antigen, sequence (P03070 whole entry): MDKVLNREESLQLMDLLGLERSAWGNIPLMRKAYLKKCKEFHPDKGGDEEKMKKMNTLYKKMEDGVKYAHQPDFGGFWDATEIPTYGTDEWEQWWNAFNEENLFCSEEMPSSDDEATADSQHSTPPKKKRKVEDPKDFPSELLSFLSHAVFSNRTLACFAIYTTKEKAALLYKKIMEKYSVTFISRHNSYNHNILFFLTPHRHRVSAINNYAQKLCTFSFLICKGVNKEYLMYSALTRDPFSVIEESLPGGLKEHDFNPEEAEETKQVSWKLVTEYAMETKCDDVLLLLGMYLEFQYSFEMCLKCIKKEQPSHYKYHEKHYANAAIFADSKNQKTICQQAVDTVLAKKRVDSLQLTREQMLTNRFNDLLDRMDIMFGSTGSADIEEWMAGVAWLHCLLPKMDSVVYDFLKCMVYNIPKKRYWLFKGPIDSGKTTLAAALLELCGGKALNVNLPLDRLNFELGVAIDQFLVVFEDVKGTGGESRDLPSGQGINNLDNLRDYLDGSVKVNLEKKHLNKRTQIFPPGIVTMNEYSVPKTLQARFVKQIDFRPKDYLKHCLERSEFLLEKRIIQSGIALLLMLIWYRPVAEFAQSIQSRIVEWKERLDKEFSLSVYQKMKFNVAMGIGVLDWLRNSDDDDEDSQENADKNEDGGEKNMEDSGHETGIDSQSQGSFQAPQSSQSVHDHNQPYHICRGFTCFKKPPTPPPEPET

C[C@@H]1CCCCO[C@H](CN(C)CC2CCCCC2)[C@H](C)CN([C@@H](C)CO)C(=O)c2cc(NC(=O)Nc3ccccc3)ccc2O1
AC50 (Paired box protein Pax-8): 10.9 µM (active) | AC50 [1]: 57 µM (active) | AC50 [2]: 61 µM (active)

Cc1cc([N+](=O)[O-])ccc1NCc1ccc2c(c1)OCCO2
IC50 [3]: 30.1 µM (active) | EC50 [4]: > 53 µM (inactive) | IC50 [5]: 19.9 µM (active)

CCOC(=O)c1ccc(NC(=O)CSCc2ccco2)cc1
IC50 (Protein Tat): 81.6 µM (inconclusive) | IC50 [6]: > 73.7 µM (active)

C#CCN(C[C@@H]1[C@@H](OC(=O)NC2CCCC2)[C@@H](OC(=O)NC2CCCC2)Cn2c(=O)ccc(=O)n21)S(=O)(=O)c1ccc(C)cc1
AC50 [7]: 12.9 µM (active) | AC50 [8]: 23.1 µM (active) | AC50 [9]: 14.4 µM (active) | IC50 [10]: 16.5 µM (inactive) | AC50 (Paired box protein Pax-8): 6.12 µM (active) | AC50 [11]: 3.87 µM (active)

CCOc1ccc(N(CC(=O)NCCOc2ccc(C)cc2)S(=O)(=O)c2ccccc2)cc1
IC50 (Beta-galactosidase): > 80 µM (inactive)

COc1ccc(S(=O)(=O)Nc2ccc3c(c2)OCO3)cc1C
IC50 [6]: > 100 µM (active)

COC(=O)C1=C(C)NC(=O)/C1=C\c1cccs1
IC50 (Protein Tat): > 100 µM (active) | IC50 [6]: > 100 µM (active)

Fc1ccc(/N=c2\ssnc2Cl)c(F)c1
IC50 [12]: 25.3 µM (active) | IC50 [13]: 38.5 µM (inactive)

Oc1nc2cc(/N=C/c3c(O)ccc4cc(Br)ccc34)ccc2[nH]1
IC50 [12]: > 50 µM (not active) | EC50 [14]: > 99 µM (inactive) | EC50 [15]: 5.48 µM (active)

O=C(Nc1ccc(NC(=O)c2ccccc2O)cc1)Nc1ccc(F)cc1F
EC50 (Kallikrein-7): 9.78 µM (active)

Cc1c(NS(=O)(=O)c2ccccc2)ccc([N+](=O)[O-])c1Cl
IC50 [3]: 3.86 µM (active) | EC50 [4]: > 53 µM (inactive) | IC50 [5]: 13.2 µM (active)

CCOC(=O)N1CCN(C(=O)COc2ccc3c(c2)C(=O)CC(C)(C)O3)CC1
EC50 (Kallikrein-7): > 69.5 µM (inactive)

CCOC(=O)N1CCN(C(=O)CSc2ccc(Cl)cc2)CC1
IC50 (Beta-galactosidase): > 80 µM (inactive)

O=C1CC(N2CCN(c3ccc(O)cc3)CC2)C(=O)N1Cc1cccs1 (stereo not given)
EC50 [16]: 6.78 µM (active) | IC50 (Large T antigen): 5.41 µM (active) | EC50 [17]: 12 µM (active) | AC50 [18]: 0.123 µM (active)

O=C(Nc1cccc(F)c1)c1coc(=O)c(Br)c1
IC50 [3]: 9.89 µM (active) | EC50 [4]: > 53 µM (inactive) | IC50 [5]: 12.4 µM (active)

COc1cc(C(=O)O[C@H]2CC(C)=CC[C@@]3(C)CC[C@@](O)(C(C)C)[C@H]23)ccc1O [TEFERIN]
AC50 [19]: 1.19 µM (active) | AC50 [20]: 35.6 µM (active) | AC50 [21]: 1.64 µM (active) | AC50 [22]: 2.35 µM (active) | AC50 [23]: 4.06 µM (active)

O=S(=O)(c1ccc(-c2cn3ccccc3n2)cc1)N1CCOCC1
EC50 (Kallikrein-7): > 69.5 µM (inactive)

CC(C)N(C)c1ncnc2c1ncn2[C@H]1CN(Cc2ccc(Cl)cc2)C[C@@H](CO)O1
IC50 (Beta-galactosidase): > 80 µM (inactive)

CN(C)S(=O)(=O)[n+]1ccn(C)c1.c1ccc([B-](c2ccccc2)(c2ccccc2)c2ccccc2)cc1
EC50 [16]: 2.68 µM (active) | EC50 [17]: 1.77 µM (active) | IC50 [13]: 15.7 µM (active)

COc1ccc2c(C)nc(Nc3nc(C)c(C)c(O)n3)nc2c1
EC50 [24]: > 120 µM (not active) | CC50 [25]: 7.44 µM (active) | EC50 [26]: 5.4 µM (active) | EC50 [27]: 4.69 µM (active) | AC50 [28]: 6.84 µM (active) | AC50 [19]: 10.3 µM (active) | AC50 [20]: 7.32 µM (active) | AC50 [21]: 2.84 µM (active) | AC50 [23]: 8.79 µM (active)
